Experimental findings from ChEMBL document CHEMBL1201862, “PubChem BioAssay data set” (2004) are described below.

The AC50 is the midpoint of the concentration-response curve, whichever way the signal moves.

In one assay the target is Genome polyprotein (dengue virus type 2, UniProt P29990). Kind of assay: Dengue-2 NS5 methyltransferase inhibitors, primary screen, biochemical, confirmation dose response (AID 588689). It counts as functional.
Assay [1] addresses Arf-GAP with SH3 domain, ANK repeat and PH domain-containing protein 1 (Homo sapiens, UniProt Q9ULH1). It counts as functional.
Assay [2] has as its target T1, Sentrin-specific protease 1 (Homo sapiens, UniProt Q9P0U3). Kind of assay: potency of human SENP1 inhibitors, dose response, biochemical, kinetic FRET (AID 651697). It counts as functional. Conditions: read-out: IC50_Mean.
Assay [3] deals with T1, Sentrin-specific protease 1. Put plainly: Dose response confirmation of small molecule inhibitors of the catalytic domain of the SUMO protease, SENP1 in a FRET assay. The class given is functional. Conditions: read-out: IC50_Mean.
Assay [4] deals with T2, RNA-binding protein pos-1 (Caenorhabditis elegans, UniProt G5EF15).
T2 sequence (G5EF15 whole entry): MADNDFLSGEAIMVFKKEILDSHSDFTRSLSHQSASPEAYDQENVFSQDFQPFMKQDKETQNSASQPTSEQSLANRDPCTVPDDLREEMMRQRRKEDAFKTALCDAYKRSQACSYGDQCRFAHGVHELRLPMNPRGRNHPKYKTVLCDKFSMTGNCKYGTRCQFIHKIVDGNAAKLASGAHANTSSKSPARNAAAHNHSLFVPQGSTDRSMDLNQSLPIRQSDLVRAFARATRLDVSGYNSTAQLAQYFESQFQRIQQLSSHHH
Put plainly: inhibitors of POS-1/mex-3 RNA binding, dose response, biochemical, fluorescence polarization (AID 1964). (In fluorescence polarisation assays a small probe gives low polarisation when free and higher when bound to something large.)

The target in the next assay is T3, Protein RecA (Mycobacterium tuberculosis, UniProt P9WHJ3).
T3 sequence (P9WHJ3 whole entry): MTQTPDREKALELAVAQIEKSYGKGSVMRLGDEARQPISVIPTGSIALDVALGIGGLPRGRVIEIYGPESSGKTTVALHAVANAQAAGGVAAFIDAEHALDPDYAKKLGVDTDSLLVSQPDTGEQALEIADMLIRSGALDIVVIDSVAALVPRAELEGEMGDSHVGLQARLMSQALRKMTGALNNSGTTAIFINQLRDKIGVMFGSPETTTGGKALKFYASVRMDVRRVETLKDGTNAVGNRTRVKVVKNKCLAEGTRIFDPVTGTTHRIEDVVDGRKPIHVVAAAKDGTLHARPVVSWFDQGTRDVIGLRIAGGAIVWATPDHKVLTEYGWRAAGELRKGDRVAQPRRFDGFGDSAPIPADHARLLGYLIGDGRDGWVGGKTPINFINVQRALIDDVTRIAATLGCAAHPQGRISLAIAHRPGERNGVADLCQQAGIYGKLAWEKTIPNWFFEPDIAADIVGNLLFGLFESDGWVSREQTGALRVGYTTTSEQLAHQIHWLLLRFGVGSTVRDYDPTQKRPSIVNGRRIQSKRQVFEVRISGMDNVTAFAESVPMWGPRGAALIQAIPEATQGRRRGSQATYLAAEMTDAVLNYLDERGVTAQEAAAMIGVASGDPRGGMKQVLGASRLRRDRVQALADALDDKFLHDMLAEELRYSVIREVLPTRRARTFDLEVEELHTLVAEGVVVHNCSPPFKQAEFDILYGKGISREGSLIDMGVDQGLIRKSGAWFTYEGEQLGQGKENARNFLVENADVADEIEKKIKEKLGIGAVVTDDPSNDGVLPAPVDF
Put plainly: Fluorescence Cell-Free Homogeneous Dose Retest to Identify Inhibitors of RecA-Intein Splicing Activity. [Related pubchem assays (depositor defined):AID2097, AID2223, AID489010, AID492950]. It counts as functional.

Assay [5] has as its target T4, Zinc finger protein mex-5 (Caenorhabditis elegans, UniProt Q9XUB2).
T4 sequence (Q9XUB2 whole entry): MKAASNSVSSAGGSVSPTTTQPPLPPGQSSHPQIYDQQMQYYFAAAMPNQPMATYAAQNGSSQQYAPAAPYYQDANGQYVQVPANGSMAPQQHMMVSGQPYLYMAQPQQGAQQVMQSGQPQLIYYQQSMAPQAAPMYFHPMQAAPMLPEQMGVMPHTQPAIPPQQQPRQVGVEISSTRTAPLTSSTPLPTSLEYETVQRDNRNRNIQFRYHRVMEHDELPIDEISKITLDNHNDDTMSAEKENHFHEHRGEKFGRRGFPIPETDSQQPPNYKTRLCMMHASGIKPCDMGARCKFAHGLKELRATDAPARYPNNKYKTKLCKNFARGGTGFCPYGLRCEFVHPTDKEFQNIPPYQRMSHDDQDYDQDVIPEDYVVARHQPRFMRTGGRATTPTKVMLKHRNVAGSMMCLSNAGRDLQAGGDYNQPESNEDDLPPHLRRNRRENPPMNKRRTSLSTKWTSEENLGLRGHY
Put plainly: MEX-5/TCR-2 RNA interaction inhibitors, dose response, biochemical, C. elegans, fluorescence polarization (AID 1960).

Assay [6] has as its target T5, Sentrin-specific protease 8 (Homo sapiens, UniProt Q96LD8).
T5 sequence (Q96LD8 whole entry): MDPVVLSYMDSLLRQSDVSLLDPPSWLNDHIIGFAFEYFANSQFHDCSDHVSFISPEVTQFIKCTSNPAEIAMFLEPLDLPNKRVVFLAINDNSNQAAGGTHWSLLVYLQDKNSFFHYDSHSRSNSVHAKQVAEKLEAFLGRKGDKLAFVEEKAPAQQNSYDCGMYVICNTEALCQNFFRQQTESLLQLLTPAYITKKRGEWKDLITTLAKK
The class given is functional.

Assay [7] deals with T6, Replicative DNA helicase DnaB (Mycobacterium tuberculosis, UniProt P9WMR3).
T6 sequence (P9WMR3 whole entry): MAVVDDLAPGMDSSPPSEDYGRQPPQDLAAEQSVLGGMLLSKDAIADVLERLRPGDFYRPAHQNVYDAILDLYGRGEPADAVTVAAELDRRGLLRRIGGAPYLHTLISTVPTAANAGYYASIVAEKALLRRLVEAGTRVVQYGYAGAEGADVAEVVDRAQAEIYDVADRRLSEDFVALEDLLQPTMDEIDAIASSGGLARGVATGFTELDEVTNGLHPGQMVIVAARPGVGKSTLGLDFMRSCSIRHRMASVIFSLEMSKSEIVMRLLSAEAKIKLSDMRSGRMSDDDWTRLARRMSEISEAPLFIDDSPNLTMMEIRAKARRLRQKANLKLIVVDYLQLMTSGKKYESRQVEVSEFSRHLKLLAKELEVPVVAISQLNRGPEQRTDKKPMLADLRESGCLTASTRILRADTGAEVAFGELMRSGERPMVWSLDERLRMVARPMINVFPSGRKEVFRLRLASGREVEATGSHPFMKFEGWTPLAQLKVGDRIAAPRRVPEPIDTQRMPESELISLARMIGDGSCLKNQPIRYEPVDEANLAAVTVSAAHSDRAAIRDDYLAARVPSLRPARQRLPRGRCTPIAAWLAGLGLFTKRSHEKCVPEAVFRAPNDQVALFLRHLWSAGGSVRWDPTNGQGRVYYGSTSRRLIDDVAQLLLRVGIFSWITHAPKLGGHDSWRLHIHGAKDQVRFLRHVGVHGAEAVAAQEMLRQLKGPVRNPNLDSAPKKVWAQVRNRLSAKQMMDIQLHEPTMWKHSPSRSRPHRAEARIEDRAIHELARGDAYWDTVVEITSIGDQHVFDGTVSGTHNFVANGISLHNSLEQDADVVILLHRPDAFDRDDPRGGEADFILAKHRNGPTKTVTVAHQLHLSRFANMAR
Kind of assay: DnaB intein splicing inhibitors, dose response, biochemical, cell-free fluorescence (AID 449749). The class given is functional.

The target in a further assay is Large T antigen (Simian virus 40, UniProt P03070). It counts as functional, Betapolyomavirus macacae.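 Note: Confirmatory-stage PubChem screen for compounds that inhibit SV40 T antigen.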
Assay [8] addresses T5, Sentrin-specific protease 8. It counts as functional. This is another data set of the same source.
For assay [9], the target named is Botulinum neurotoxin type F (Clostridium botulinum, UniProt P30996). Put plainly: High-throughput multiplex microsphere dose response for inhibitors of toxin protease, specifically Botulinum neurotoxin light chain F protease, compounds from Cherry Pick 02. Conditions: read-out: EC50_MICROM. It counts as functional.
Chain of Botulinum neurotoxin type F (P30996 1-436 limits assumed): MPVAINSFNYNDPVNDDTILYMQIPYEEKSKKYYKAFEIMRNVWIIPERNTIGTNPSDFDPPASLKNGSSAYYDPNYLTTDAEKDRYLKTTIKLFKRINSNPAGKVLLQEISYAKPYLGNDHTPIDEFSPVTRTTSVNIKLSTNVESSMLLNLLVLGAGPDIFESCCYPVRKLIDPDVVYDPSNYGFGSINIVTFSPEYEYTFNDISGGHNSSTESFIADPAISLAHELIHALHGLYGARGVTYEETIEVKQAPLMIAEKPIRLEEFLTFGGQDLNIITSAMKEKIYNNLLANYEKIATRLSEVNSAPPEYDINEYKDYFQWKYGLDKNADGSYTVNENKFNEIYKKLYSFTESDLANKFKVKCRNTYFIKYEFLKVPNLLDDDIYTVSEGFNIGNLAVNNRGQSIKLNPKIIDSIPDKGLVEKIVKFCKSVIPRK
Assay [10] is described as follows: Counterscreen for activators of the function of SWI/SNF related, matrix associated, actin dependent regulator of chromatin, subfamily a, member 2 (SMARCA2, BRM): Luminescence-based cell-based high throughput dose response assay to identify non-selective compounds using the VP16 reporter assay. It counts as functional. In general terms: The purpose of a counterscreen is to sort out artefacts and off-target activity.

The nature of assay [11]: DNA binding of candidate compounds, dose response, artefact control for RAD54 inhibitor project, biochemical, fluorescence polarization, cherry-pick (AID 651673). The class given is functional.
The nature of assay [12]: inhibitors of intracellular T. cruzi replication, confirmation, NIH3T3 host cells, beta-gal luminescence (AID 2044).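 Note: intracellular parasites grown in NIH/3T3 mouse fibroblasts as host cells; luminescent beta-galactosidase reporter signal from transgenic T. cruzi replicating inside host cells; inhibitors lower the luminescence signal.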 The class given is functional, cell-based.
Assay [13] is described as follows: growth suppression of PTEN-null colon cells, dose response, cell-based, HCT116 PTEN knockout (AID 1047).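 Note: HCT116 colon tumor cells with PTEN knocked out; cells exposed to compound for 60 hours before readout; potency for loss of cell viability measured by luminescence.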 The class given is functional.
The target of assay [14] is DNA (cytosine-5)-methyltransferase 1 (Homo sapiens, UniProt P26358). Put plainly: DNMT1 methyltransferase inhibitors, confirmation, biochemical, fluorescent molecular beacon (AID 602386). The class given is functional.
Chain of DNA (cytosine-5)-methyltransferase 1 (P26358 whole entry): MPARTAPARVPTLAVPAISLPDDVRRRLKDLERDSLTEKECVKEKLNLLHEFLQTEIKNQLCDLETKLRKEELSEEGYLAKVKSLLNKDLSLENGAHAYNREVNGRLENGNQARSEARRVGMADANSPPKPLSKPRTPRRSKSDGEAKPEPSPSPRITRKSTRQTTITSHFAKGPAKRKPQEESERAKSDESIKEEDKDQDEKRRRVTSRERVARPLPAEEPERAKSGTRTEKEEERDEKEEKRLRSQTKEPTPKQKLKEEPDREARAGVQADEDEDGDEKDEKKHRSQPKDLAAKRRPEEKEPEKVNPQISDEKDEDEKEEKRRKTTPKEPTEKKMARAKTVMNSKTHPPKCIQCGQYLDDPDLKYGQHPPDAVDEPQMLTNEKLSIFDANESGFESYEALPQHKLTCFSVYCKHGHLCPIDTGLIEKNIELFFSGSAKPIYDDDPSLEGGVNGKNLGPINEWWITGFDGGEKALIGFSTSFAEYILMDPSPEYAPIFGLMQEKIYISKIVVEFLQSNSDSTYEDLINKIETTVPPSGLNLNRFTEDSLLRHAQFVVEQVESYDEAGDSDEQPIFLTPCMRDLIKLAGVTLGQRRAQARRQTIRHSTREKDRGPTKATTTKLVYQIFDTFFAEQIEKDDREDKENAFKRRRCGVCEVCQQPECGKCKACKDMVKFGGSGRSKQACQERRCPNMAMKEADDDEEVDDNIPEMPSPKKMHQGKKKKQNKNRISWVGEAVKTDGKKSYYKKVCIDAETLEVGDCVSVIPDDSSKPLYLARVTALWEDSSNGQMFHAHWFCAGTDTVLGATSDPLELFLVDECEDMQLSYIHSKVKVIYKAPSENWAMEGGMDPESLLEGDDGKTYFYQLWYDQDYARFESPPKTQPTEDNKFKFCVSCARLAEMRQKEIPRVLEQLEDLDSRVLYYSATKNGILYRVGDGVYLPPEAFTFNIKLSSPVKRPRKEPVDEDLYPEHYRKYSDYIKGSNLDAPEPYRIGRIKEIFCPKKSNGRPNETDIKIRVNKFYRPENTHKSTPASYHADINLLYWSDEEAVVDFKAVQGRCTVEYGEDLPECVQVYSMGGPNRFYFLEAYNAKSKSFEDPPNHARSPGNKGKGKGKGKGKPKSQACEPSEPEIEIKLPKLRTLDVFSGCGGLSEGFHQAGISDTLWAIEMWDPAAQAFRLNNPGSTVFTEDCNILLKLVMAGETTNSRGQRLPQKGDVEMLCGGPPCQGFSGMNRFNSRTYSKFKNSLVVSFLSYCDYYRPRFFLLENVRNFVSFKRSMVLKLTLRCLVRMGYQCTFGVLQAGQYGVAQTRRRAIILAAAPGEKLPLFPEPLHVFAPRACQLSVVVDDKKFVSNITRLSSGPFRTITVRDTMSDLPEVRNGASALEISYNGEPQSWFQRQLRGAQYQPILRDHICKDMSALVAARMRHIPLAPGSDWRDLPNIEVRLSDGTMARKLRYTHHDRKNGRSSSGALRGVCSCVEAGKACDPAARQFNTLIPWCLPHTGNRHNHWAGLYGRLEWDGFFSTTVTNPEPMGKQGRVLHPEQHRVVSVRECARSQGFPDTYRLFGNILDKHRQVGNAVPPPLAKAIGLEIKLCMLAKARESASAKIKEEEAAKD
The target in assay [15] is SWI/SNF-related matrix-associated actin-dependent regulator of chromatin subfamily A member 2 (Homo sapiens, UniProt P51531). Put plainly: Luminescence-based cell-based high throughput dose response assay to identify activators of the function of SWI/SNF related, matrix associated, actin dependent regulator of chromatin, subfamily a, member 2 (SMARCA2, BRM). The class given is functional.

Assay [16] in a line: cytotoxicity toward NIH3T3 fibroblasts, dose response, counter-screen, cell-based, ATP luminescence, mouse fibroblasts (AID 2010).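 Note: cells exposed to compound for about 90 hours before reading.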 The class given is functional.
Assay [17] in a line: growth suppression of beta-catenin-knockout colon cells, dose response, cell-based, HCT116, human colon tumor (AID 1045).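 Note: HCT116 colon tumor cells with beta catenin knocked out; cells exposed to compound for 60 hours.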 It counts as functional.
The target in assay [18] is T7, DNA repair and recombination protein RAD54-like (Homo sapiens, UniProt Q92698).
T7 sequence (Q92698 whole entry): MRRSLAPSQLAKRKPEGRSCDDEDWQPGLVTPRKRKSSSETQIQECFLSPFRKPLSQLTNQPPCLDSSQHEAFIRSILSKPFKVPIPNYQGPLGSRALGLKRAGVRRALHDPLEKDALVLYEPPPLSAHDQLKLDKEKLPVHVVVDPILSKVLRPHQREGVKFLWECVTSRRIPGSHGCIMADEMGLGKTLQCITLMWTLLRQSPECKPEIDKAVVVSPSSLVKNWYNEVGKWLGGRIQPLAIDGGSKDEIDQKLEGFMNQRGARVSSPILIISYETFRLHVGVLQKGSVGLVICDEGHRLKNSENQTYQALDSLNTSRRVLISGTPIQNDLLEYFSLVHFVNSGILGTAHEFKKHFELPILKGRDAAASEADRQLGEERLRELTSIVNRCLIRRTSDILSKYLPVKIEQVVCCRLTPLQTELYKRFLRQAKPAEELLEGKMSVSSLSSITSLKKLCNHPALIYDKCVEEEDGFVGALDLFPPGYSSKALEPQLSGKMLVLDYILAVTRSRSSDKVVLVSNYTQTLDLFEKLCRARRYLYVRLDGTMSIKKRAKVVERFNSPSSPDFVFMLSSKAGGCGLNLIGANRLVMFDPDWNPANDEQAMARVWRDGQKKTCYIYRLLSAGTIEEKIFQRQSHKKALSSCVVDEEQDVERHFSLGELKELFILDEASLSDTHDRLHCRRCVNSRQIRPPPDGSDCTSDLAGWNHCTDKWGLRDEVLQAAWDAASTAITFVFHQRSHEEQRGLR
Kind of assay: inhibitors of human RAD54 branch migration, confirmation, biochemical, fluorescence, cherry-picked samples, dose series (AID 651657). The class given is functional.

The next assay concerns the target Nonstructural protein 1 (Influenza A virus, UniProt Q194T2). It counts as functional, Influenza A virus (A/California/07/2009(H1N1)).

The structures appear in SMILES notation. Calls of active or inactive are those of the source.

T1 sequence (Q9P0U3 whole entry, the tested form may be a part): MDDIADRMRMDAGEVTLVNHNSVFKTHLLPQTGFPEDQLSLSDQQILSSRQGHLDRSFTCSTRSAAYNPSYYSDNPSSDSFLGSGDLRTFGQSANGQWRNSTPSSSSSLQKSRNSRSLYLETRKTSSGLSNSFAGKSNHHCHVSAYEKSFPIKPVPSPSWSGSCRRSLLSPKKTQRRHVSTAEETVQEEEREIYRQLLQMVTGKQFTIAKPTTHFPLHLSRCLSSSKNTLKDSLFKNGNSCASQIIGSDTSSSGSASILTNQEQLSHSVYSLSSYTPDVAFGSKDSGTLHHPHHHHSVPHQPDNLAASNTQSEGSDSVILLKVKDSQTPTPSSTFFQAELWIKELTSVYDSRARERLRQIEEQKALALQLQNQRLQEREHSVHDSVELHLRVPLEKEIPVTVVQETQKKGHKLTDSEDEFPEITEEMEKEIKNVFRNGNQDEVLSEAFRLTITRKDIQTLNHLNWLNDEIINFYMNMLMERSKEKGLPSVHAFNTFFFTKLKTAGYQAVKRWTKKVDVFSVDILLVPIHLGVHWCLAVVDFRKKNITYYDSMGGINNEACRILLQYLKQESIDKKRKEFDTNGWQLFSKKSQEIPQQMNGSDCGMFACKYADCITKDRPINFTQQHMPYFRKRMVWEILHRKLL
Chain of Arf-GAP with SH3 domain, ANK repeat and PH domain-containing protein 1 (Q9ULH1 whole entry, the tested form may be a part): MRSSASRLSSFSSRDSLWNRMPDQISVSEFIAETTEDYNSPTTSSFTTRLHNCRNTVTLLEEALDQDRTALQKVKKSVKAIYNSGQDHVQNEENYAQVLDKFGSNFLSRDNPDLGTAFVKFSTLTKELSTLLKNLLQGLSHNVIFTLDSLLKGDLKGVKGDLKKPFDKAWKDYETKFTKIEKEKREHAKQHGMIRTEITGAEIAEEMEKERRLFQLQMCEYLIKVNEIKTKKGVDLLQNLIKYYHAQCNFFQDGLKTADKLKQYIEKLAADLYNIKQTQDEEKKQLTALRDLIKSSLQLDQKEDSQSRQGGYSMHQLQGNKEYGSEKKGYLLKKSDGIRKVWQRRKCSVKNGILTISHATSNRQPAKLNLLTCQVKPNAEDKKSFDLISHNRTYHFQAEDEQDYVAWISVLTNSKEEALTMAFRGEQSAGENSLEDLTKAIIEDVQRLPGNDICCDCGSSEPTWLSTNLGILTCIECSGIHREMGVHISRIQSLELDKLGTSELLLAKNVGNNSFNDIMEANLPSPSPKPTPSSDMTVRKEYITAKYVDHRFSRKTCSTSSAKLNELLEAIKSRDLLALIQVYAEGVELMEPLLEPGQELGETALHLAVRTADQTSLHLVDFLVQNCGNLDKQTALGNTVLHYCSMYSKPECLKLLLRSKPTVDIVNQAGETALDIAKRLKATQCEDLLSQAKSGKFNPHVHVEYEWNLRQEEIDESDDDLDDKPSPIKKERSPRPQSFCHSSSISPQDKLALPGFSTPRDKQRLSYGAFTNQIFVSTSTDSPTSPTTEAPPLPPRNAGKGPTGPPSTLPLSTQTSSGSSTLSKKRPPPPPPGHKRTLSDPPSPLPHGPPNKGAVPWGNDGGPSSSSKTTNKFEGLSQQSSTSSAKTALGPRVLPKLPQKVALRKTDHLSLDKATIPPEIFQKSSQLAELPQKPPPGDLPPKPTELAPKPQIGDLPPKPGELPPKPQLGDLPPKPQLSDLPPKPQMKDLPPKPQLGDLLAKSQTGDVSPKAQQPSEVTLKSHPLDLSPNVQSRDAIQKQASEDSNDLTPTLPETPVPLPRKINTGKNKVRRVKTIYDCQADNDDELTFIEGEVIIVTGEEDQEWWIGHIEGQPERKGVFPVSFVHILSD
Chain of Nonstructural protein 1 (Q194T2 whole entry): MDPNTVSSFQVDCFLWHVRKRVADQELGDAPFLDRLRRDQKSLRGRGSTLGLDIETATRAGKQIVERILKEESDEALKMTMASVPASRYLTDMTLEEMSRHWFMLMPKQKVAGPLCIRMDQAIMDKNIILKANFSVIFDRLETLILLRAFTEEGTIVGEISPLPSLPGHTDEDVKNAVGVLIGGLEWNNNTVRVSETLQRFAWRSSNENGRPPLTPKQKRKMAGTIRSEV
Chain of Genome polyprotein (P29990 2492-3391 limits assumed): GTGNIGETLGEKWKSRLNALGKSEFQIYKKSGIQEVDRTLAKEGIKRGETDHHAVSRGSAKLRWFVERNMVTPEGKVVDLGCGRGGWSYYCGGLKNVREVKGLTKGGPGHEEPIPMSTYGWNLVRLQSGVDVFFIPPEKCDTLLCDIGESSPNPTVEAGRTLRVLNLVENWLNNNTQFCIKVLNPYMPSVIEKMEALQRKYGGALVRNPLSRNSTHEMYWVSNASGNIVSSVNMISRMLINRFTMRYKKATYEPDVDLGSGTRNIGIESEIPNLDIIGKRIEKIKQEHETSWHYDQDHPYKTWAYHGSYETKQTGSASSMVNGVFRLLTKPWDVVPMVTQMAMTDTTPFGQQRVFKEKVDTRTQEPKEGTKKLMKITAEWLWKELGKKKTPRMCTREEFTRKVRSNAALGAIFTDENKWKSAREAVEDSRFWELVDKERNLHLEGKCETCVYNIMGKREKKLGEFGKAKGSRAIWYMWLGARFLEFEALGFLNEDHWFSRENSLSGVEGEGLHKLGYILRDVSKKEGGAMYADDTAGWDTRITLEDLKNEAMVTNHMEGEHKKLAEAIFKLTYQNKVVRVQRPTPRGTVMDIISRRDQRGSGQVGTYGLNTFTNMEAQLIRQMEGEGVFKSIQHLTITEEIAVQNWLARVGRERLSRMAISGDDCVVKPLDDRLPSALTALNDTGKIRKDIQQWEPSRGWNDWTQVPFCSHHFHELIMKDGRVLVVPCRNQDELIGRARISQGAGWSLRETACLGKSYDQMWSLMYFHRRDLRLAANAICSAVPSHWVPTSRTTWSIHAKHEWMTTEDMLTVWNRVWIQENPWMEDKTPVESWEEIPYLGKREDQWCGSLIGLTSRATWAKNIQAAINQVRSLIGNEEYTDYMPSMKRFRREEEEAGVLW

On to `Cc1cc(C)c2nc(N3C(=O)C(O)=C(C(=O)c4ccco4)C3c3cccc(O)c3)sc2c1` (configuration not stated), for which the IC50 at Genome polyprotein is 32.4 µM (active); in [1], 81.8 µM (inactive).
`Cc1cc(C)c(Cn2c(C(=O)O)c(C=O)c3ccccc32)c(C)c1`: the IC50 in assay [2] was 16.9 µM (active); in assay [3], 20.8 µM (inactive).
Consider `CCOc1cc(C(c2c(C)[nH][nH]c2=O)c2c(C)[nH][nH]c2=O)ccc1O`, for which the EC50 in assay [4] is 57.9 µM (active); at Protein RecA it was 0.24 µM (active); in assay [5], 107 µM (active). Also, the IC50 in assay [6] was 16.2 µM (active); on Large T antigen it was > 100 µM (active); in assay [8], 21.4 µM (active). Moreover, the AC50 in assay [7] is 0.302 µM (active).
As to `COc1ccccc1Cc1c(-c2ccc(C)cc2)nc2cc(C)c(Br)c(C)n12`, the EC50 in assay [9] is > 20 µM (inactive).
As for `CCN(CC)CCNc1nc2cc(OC)c(OC)cc2c2nc(-c3ccccc3)nn12`, the EC50 in assay [10] was > 91.2 µM (inactive); in [12] it was 0.678 µM (active); in assay [13] it was 4.9 µM (active); in assay [15], > 91.2 µM (inactive); in [16], > 30 µM (not active); in assay [17], 3.48 µM (active). In addition, the values for the AC50 in [11] and in assay [18] were 51.8 µM (active) and 1.92 µM (active), respectively. Moreover, the IC50 was > 99 µM (inactive) in assay [14] and > 100 µM (active) at Nonstructural protein 1.
